Laboratory results published in PMC8408562, “Spatially restricted substrate-binding site of cortisol-synthesizing CYP11B1 limits multiple hydroxylations and hinders aldosterone synthesis” (Current Research in Structural Biology, 2021).
Positions count from the first letter of the chain named. Values joined by “and” are separate entries in the source; they are usually repeats but may differ in a detail not shown here. Equal values may be shown once. Read-outs that look alike come from different tables or passages of the source.

Legend:
[1] = biological target: T1, human CYP11B1 mutant (W49R, L50N, L53N, W56R, L244N, W247N) (Homo sapiens, UniProt P15538, L244N/L50N/L53N/W247N/W49R/W56R); test: Steady-state kinetics in reconstituted system (adrenodoxin reductase, adrenodoxin, NADPH), LC-MS/MS, mutant; format: biochemical; details: for Production of 18-hydroxy cortisol / 18-hydroxy corticosterone (11β,18-dihydroxylation): from DOF and DOC, respectively
T1 sequence (P15538 28-503 W49R/L50N/L53N/W56R/L244N/W247N limits assumed): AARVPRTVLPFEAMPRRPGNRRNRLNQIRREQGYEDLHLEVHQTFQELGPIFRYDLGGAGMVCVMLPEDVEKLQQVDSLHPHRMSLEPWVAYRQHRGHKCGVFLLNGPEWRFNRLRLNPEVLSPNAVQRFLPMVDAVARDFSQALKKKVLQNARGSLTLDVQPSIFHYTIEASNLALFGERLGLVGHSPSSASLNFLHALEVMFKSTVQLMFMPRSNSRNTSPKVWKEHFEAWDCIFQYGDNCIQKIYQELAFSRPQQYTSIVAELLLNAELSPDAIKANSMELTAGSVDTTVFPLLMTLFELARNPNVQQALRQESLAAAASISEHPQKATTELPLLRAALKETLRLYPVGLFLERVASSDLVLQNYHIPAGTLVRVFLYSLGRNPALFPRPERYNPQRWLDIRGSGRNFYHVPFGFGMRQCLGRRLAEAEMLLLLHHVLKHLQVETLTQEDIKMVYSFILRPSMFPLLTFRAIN

[2] = system: CYP11B1 S288G / CYP11B2 R181W/V386A; set-up: method as in ref [2, 3] (a number printed in a supplementary file, which may have a reference list of its own: not looked up in the article's list); details: group (iii); steroids produced from DOC, estimated against wild type controls; ref [2, 3]; cited from earlier work
human CYP11B1 wild type [3] = biological target: T2, human CYP11B1 wild type (Homo sapiens, UniProt P15538); test: Steady-state kinetics in reconstituted system (adrenodoxin reductase, adrenodoxin, NADPH), LC-MS/MS, wild type; format: biochemical
T2 sequence (P15538 28-503 limits assumed): T1 sequence (P15538 28-503 W49R/L50N/L53N/W56R/L244N/W247N limits assumed) with R22W, N23L, N26L, R29W, N217L, N220W

CYP11B2 Wild type = system: CYP11B2 Wild type; set-up: method as in ref [1] (a number printed in a supplementary file, which may have a reference list of its own: not looked up in the article's list); details: calculated from kcat values with substrate DOC, ref [1]; cited from earlier work
[4] = biological target: T1, human CYP11B1 mutant (W49R, L50N, L53N, W56R, L244N, W247N); test: Spectroscopic titration of ferric enzyme (difference spectra), mutant; details: direct titration of ferric form, mean ± SE, n=3
Method: (§1) Affinities of the two enzymes for the substrates DOC or DOF and other ligands were determined by titration assays using the ferric forms.
Two forms, a wild type and a mutant, of recombinant human CYP11B1 were expressed as 486-amino acid residue polypeptide (Fig. S2).
Spectroscopic studies were carried out at room temperature using a Jasco UV–visible spectrophotometer V-530. Purified enzymes were diluted to 1.0 ​μM for the wild type and 0.8–1.2 ​μM for the mutant with the buffer consisting of 50 ​mM potassium phosphate (pH 7.4), 150 ​mM NaCl, 20% (v/v) glycerol, and 0.05% (v/v) Tween 20. Substrate DOC (Sigma) at 400 ​μM, sodium dithionite, and CO were added sequentially, and absolute spectra were recorded after each step. […] The data obtained with 5 ​mM Cymal-5 (Anatrace) in place of the substrate were also included in Fig. S4. Dissociation constants for steroids and ligands were determined from spectral changes caused by titration with increasing concentrations of them. Data were analyzed using non-linear regression (Prism 8, GraphPad Software) to calculate Kd values. […] The dissociation constants were calculated from the apparent values by using the Kd values for DOC as the inhibitory constants. […] The steroids and ligands used for spectroscopic analyses were dissolved in dimethyl sulfoxide.

human CYP11B1 wild type [5] = biological target: T2, human CYP11B1 wild type; test: Spectroscopic titration of ferric enzyme (difference spectra), wild type; details: for Spectral shift: one column for both wild type and mutant
Method: as §1
Spectroscopic studies were carried out at room temperature using a Jasco UV–visible spectrophotometer V-530. Purified enzymes were diluted to 1.0 ​μM for the wild type and 0.8–1.2 ​μM for the mutant with the buffer consisting of 50 ​mM potassium phosphate (pH 7.4), 150 ​mM NaCl, 20% (v/v) glycerol, and 0.05% (v/v) Tween 20. […] Dissociation constants for steroids and ligands were determined from spectral changes caused by titration with increasing concentrations of them. Data were analyzed using non-linear regression (Prism 8, GraphPad Software) to calculate Kd values. […] The dissociation constants were calculated from the apparent values by using the Kd values for DOC as the inhibitory constants. […] The steroids and ligands used for spectroscopic analyses were dissolved in dimethyl sulfoxide.

[6] = system: CYP11B1 S288G/V320A / CYP11B2 Wild type; set-up: method as in ref [2, 3] (a number printed in a supplementary file, which may have a reference list of its own: not looked up in the article's list); details: group (iv); steroids produced from DOC, estimated against wild type controls; ref [2, 3]; cited from earlier work
[7] = system: CYP11B1 Wild type / CYP11B2 G288S; set-up: method as in ref [2, 3] (a number printed in a supplementary file, which may have a reference list of its own: not looked up in the article's list); details: group (ii); steroids produced from DOC, estimated against wild type controls; ref [2, 3]; cited from earlier work
[8] = CYP11B1 mutant, calculated from kcat values with substrate DOC
[9] = CYP11B1 wild type (this study), calculated from kcat values with substrate DOC

## C[C@]12CC[C@H]3[C@@H](CCC4=CC(=O)CC[C@@]43C)[C@@H]1CC[C@@H]2C(=O)CO [DOC, 11-deoxycorticosterone]
[1]
  kcat, 11β,18-diOHase: 0 s⁻¹
  kcat, 11β,18-diOHase,18-oxidase: 0 s⁻¹
  kcat, 11β-hydroxylation: 2.212 s⁻¹
[1]; [8]
  Relative activity (molar product ratio), 11b,18-diOHase: 0%
  Relative activity (molar product ratio), 11b,18-diOHase,18-oxidase: 0%
  Relative activity (molar product ratio), 11b-OHase: 95.8%
  Relative activity (molar product ratio), 18-OHase: 4.2%
[1]; Mutant, from DOC
  Production of aldosterone: not produced
[1]; Mutant
  Production of 18-hydroxy cortisol / 18-hydroxy corticosterone (11β,18-dihydroxylation): did not produce
[2]
  Activity class, 11b,18-diOHase: ++ (Percentages 0, >0 and ≤1, >1 and ≤10, and >10 are indicated by (-), (+), (++), and (+++), respectively)
  Activity class, 11b,18-diOHase,18-oxidase: - (Percentages 0, >0 and ≤1, >1 and ≤10, and >10 are indicated by (-), (+), (++), and (+++), respectively)
  Activity class, 11b-OHase: +++ (Percentages 0, >0 and ≤1, >1 and ≤10, and >10 are indicated by (-), (+), (++), and (+++), respectively)
Human CYP11B1 wild type [3]
  kcat, 11β,18-diOHase,18-oxidase: 0 s⁻¹
  kcat, 11β,18-dihydroxylation: 0.0108 s⁻¹
  kcat, 11β-hydroxylation: 2.683 s⁻¹
  kcat, 18-hydroxylation: 0.132 s⁻¹
Human CYP11B1 wild type [3]; [9]
  Relative activity (molar product ratio), 11b,18-diOHase: 0.4%
  Relative activity (molar product ratio), 11b,18-diOHase,18-oxidase: 0%
  Relative activity (molar product ratio), 11b-OHase: 94.9%
  Relative activity (molar product ratio), 18-OHase: 4.7%
Human CYP11B1 wild type [3]; Wild type, from DOC
  Production of aldosterone: not produced
CYP11B2 Wild type
  Relative activity (molar product ratio), 11b,18-diOHase: 2.7%
  Relative activity (molar product ratio), 11b,18-diOHase,18-oxidase: 0.5%
  Relative activity (molar product ratio), 11b-OHase: 92.6%
  Relative activity (molar product ratio), 18-OHase: 4.2%
[4]
  Kd: 3.8 µM and 3.81 µM
Human CYP11B1 wild type [5]
  Kd: 15.1 µM
  Spectral shift: Type I
[6]
  Activity class, 11b,18-diOHase: ++ (Percentages 0, >0 and ≤1, >1 and ≤10, and >10 are indicated by (-), (+), (++), and (+++), respectively)
  Activity class, 11b,18-diOHase,18-oxidase: + (Percentages 0, >0 and ≤1, >1 and ≤10, and >10 are indicated by (-), (+), (++), and (+++), respectively)
  Activity class, 11b-OHase: +++ (Percentages 0, >0 and ≤1, >1 and ≤10, and >10 are indicated by (-), (+), (++), and (+++), respectively)
[7]
  Activity class, 11b,18-diOHase: + (Percentages 0, >0 and ≤1, >1 and ≤10, and >10 are indicated by (-), (+), (++), and (+++), respectively)
  Activity class, 11b,18-diOHase,18-oxidase: - (Percentages 0, >0 and ≤1, >1 and ≤10, and >10 are indicated by (-), (+), (++), and (+++), respectively)
  Activity class, 11b-OHase: +++ (Percentages 0, >0 and ≤1, >1 and ≤10, and >10 are indicated by (-), (+), (++), and (+++), respectively)

## C[C@]12CCC(=O)C=C1CC[C@@H]1[C@@H]2CC[C@@]2(C)[C@H]1CC[C@]2(O)C(=O)CO [DOF, 11-deoxycortisol]
[1]; Mutant, DOF to cortisol, DOC to corticosterone
  kcat, 11β-hydroxylation: 1.51 s⁻¹
[1]; Mutant
  Production of 18-hydroxy cortisol / 18-hydroxy corticosterone (11β,18-dihydroxylation): did not produce
[1]; Mutant, product 18OH-F (from DOF) or 18OH-B (from DOC)
  kcat, 11β,18-diOHase: 0 s⁻¹
Human CYP11B1 wild type [3]; Wild type, DOF to cortisol, DOC to corticosterone
  kcat, 11β-hydroxylation: 2.157 s⁻¹
[4]
  Kd: 3.3 µM and 3.31 µM
Human CYP11B1 wild type [5]
  Kd: 21.2 µM
  Spectral shift: Type I
